The record followed here is ChEMBL document CHEMBL5241126, “Design and synthesis of 6-methylpyridin-2-one derivatives as novel and potent GluN2A positive allosteric modulators for the treatment of cognitive impairment” (Bioorg Med Chem, 2023).

SMILES strings stand for the structures.

Data set [1] can be described thus: 1-Octanol/aqueous buffer partition coefficient, logD of the compound at pH 7.4 by chromatographic method based UV-visible detector. In kind it is physicochemical.
Another data set deals with Glutamate receptor 2 (Homo sapiens, UniProt P42262). In words: Displacement of [3H]-HBT1 from His-tagged GluA2-AMPA receptor LBD (unknown origin) in presence of glutamate by scintillation proximity assay.
Sequence of Glutamate receptor 2 (P42262 whole entry, the tested form may be a part): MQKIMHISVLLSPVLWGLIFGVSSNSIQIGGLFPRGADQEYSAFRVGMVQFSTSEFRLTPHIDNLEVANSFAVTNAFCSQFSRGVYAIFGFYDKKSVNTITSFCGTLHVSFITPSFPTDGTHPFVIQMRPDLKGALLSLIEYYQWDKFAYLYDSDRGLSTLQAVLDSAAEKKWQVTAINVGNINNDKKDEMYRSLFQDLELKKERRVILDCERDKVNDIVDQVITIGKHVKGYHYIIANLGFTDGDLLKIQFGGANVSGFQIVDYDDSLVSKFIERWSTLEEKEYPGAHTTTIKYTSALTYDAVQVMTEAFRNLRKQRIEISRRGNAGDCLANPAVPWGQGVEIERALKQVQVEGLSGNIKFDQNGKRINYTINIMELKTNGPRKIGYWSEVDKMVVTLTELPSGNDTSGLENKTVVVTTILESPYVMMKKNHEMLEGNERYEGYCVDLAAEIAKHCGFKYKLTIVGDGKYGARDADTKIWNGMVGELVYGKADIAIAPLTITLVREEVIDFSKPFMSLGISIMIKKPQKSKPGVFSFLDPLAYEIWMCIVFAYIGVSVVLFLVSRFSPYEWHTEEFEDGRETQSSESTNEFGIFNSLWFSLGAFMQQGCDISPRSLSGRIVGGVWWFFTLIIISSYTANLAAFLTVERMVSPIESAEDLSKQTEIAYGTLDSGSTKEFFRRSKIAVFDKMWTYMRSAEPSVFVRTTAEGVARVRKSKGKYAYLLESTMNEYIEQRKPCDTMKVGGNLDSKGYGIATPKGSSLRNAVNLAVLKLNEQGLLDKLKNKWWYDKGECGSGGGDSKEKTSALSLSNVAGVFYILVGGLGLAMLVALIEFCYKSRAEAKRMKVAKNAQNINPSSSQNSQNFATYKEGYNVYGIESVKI
Data set [2] has as its target Glutamate receptor ionotropic, NMDA 2A (Homo sapiens, UniProt Q05586+Q12879). Nature of the data set: Positive allosteric modulator activity at GluN2A NMDA receptor (unknown origin) expressed in CHO cells co-expressing GluN1a in the presence of L-glutamate and glycine by Ca2+ influx assay. In kind it is cell-based.
Data set [3] is described as follows: Metabolic stability in human liver microsomes assessed as clearance at 1 uM incubated for 15 to 30 mins in the presence of NADPH generating system by LC-MS/MS analysis. The class given is ADME, Microsome. Particulars: time 15-30 min, read-out: CLH. (Microsomes from liver hold many membrane-bound enzymes, among them those of drug oxidation.)
Data set [4] can be described thus: Metabolic stability in rat liver microsomes assessed as clearance at 1 uM incubated for 15 to 30 mins in the presence of NADPH generating system by LC-MS/MS analysis. The class given is ADME, Microsome. The settings on record: time 15-30 min, read-out: CLH.
In data set [5] the target is Glutamate receptor ionotropic, NMDA 2B (Homo sapiens, UniProt Q05586+Q13224). In words: Positive allosteric modulator activity at GluN2B NMDA receptor (unknown origin) expressed in CHO cells co-expressing GluN1a in the presence of L-glutamate and glycine by Ca2+ influx assay. In kind it is cell-based.
The target of data set [6] is Glutamate receptor ionotropic, NMDA 2C (Homo sapiens, UniProt Q05586+Q14957). In words: Positive allosteric modulator activity at GluN2C NMDA receptor (unknown origin) expressed in CHO cells co-expressing GluN1a in the presence of L-glutamate and glycine by Ca2+ influx assay. In kind it is cell-based.
Sequence of Glutamate receptor ionotropic, NMDA 2C (Q14957 whole entry, one chain of several): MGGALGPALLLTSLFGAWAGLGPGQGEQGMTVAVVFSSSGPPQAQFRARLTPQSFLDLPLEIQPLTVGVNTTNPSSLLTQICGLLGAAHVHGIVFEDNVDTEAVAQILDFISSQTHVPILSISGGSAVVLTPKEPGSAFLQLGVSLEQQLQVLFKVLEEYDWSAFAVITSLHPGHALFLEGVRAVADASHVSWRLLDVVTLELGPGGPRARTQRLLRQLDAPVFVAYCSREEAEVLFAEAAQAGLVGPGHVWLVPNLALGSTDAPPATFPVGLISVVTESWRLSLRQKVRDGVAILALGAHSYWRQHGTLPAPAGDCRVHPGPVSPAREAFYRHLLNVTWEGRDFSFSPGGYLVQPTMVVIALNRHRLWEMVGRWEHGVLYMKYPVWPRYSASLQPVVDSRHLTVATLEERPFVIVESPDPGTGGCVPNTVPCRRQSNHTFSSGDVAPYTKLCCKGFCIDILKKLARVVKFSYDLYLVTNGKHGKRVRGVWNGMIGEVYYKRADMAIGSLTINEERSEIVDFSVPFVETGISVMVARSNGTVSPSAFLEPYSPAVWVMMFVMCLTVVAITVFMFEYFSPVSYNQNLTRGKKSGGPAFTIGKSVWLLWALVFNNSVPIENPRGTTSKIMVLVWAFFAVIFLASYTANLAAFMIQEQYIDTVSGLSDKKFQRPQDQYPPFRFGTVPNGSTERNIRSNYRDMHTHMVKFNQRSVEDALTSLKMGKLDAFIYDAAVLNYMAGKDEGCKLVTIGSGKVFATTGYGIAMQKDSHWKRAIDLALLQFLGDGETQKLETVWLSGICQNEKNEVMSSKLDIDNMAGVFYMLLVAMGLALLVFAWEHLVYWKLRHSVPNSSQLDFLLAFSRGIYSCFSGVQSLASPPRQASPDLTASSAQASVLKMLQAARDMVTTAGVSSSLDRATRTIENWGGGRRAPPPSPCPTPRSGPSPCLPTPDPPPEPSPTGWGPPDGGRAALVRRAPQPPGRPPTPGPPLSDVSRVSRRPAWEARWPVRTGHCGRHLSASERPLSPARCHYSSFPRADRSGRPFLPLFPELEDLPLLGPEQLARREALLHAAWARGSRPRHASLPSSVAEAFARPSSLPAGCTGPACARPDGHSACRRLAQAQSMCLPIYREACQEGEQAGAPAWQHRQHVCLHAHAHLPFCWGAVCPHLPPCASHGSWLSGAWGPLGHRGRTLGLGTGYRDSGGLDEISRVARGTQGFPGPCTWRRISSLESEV
Data set [7] addresses Glutamate receptor ionotropic, NMDA 2D (Homo sapiens, UniProt O15399+Q05586). Nature of the data set: Positive allosteric modulator activity at GluN2D NMDA receptor (unknown origin) expressed in CHO cells co-expressing GluN1a in the presence of L-glutamate and glycine by Ca2+ influx assay. In kind it is cell-based.
Data set [8] in a line: Drug concentration in Sprague-Dawley rat plasma at 10 mg/kg, po measured after 0.5 hrs by LC-MS/MS analysis. The class given is ADME, organism-based.
Data set [9] is described as follows: Drug concentration in Sprague-Dawley rat brain at 10 mg/kg, po measured after 0.5 hrs by LC-MS/MS analysis. In kind it is ADME, organism-based. Particulars: read-out: Ct.
Data set [10] can be described thus: Drug concentration in Sprague-Dawley rat plasma at 10 mg/kg, po measured after 1 hrs by LC-MS/MS analysis. In kind it is ADME, organism-based.
Data set [11] is described as follows: Drug concentration in Sprague-Dawley rat brain at 10 mg/kg, po measured after 1 hrs by LC-MS/MS analysis. The settings on record: read-out: Ct. In kind it is ADME, organism-based.
The nature of data set [12]: Drug concentration in Sprague-Dawley rat plasma at 10 mg/kg, po measured after 2 hrs by LC-MS/MS analysis. In kind it is ADME, organism-based.
Data set [13] can be described thus: Drug concentration in Sprague-Dawley rat brain at 10 mg/kg, po measured after 2 hrs by LC-MS/MS analysis. In kind it is ADME, organism-based. The settings on record: read-out: Ct.

Sequence of Glutamate receptor ionotropic, NMDA 2A (Q12879 whole entry, one chain of several): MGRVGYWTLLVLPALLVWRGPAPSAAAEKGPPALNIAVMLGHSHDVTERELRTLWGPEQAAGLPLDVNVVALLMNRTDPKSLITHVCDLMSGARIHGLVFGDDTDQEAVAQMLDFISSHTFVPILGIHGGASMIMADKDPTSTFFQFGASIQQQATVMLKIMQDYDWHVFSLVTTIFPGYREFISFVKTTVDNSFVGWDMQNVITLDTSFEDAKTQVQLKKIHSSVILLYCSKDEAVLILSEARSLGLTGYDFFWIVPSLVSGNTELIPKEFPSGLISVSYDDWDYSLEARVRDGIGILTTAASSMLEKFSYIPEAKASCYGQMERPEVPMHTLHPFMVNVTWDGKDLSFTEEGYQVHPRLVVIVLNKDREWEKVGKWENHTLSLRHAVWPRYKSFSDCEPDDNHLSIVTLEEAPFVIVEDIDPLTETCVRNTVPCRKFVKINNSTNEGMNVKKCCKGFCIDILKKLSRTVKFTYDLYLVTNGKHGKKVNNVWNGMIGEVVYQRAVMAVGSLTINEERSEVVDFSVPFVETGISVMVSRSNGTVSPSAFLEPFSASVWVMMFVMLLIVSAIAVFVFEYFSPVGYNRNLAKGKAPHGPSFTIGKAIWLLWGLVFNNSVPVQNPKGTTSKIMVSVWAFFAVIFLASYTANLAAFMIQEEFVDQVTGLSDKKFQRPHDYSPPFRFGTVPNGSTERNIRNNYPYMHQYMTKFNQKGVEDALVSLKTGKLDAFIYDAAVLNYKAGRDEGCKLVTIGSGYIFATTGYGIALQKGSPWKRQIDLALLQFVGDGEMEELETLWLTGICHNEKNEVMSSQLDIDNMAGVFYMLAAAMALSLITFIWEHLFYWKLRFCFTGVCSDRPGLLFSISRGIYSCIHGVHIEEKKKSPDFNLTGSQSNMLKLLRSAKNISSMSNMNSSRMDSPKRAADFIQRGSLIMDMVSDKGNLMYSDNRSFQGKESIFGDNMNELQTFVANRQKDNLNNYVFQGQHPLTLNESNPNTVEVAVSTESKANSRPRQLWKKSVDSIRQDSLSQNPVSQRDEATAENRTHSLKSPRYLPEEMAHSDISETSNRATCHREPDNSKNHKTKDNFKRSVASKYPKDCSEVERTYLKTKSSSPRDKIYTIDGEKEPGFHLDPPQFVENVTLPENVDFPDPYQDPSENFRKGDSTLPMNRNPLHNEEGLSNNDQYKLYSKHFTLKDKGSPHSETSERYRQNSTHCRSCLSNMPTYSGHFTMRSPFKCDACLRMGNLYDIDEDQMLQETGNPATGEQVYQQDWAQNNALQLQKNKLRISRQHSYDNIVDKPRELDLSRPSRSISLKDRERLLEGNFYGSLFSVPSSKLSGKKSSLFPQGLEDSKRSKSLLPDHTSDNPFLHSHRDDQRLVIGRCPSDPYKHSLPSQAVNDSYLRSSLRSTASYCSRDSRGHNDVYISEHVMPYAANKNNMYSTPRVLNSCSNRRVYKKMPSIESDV
Sequence of Glutamate receptor ionotropic, NMDA 2D (O15399 whole entry, one chain of several): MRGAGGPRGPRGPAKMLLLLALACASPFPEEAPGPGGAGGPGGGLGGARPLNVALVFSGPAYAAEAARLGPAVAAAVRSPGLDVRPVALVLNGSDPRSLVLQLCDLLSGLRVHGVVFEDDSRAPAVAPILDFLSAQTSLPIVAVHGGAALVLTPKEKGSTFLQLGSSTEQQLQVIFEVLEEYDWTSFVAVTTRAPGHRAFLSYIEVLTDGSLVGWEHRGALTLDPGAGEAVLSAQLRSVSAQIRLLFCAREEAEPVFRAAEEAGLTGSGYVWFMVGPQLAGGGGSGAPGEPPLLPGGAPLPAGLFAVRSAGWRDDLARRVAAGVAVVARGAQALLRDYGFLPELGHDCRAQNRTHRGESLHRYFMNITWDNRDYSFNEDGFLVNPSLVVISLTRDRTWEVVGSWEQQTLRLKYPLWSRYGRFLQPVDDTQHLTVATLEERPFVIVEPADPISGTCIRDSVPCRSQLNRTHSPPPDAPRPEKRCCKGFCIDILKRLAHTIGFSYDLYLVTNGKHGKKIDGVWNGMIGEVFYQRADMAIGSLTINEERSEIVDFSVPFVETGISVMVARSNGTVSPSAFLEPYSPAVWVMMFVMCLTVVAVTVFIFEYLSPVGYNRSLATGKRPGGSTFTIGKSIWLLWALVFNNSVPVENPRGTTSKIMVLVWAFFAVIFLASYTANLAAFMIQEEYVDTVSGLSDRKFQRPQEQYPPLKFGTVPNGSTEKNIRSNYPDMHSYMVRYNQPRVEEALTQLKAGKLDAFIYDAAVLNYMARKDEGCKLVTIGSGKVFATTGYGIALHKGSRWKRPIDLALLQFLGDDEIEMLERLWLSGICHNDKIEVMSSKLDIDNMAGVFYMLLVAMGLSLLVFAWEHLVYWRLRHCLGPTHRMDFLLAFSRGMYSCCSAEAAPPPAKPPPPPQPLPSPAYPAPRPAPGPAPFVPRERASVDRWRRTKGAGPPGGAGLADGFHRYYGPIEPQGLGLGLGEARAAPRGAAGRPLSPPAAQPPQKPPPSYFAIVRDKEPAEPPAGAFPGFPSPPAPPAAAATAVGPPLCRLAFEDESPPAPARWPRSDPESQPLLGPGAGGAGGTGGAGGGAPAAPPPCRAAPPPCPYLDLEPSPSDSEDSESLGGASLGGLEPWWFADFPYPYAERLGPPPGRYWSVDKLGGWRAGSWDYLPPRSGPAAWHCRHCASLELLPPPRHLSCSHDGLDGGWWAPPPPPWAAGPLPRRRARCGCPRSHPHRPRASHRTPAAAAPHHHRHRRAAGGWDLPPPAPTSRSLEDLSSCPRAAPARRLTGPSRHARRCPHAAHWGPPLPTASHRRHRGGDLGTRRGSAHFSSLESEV

`CCN(Cc1cc(C)n(C[C@@H]2C[C@H]2C#N)c(=O)c1)c1ccc(F)cc1` had a chromatographic logD in [1] of 2.4. In addition, at Glutamate receptor 2, the IC50 came to 16 µM.

Compound `CCN(Cc1cc(=O)n(CC2CC2)c(C)n1)c1ccc(F)cc1` came in with a chromatographic logD in [1] of 2.9. Further, the concentration giving a half-maximal response (EC50) in [2] amounted to 13 µM. Besides, the IC50 at Glutamate receptor 2 amounted to 2.3 µM.

`Cc1cccc(Cc2cc(C)n(C[C@H]3C[C@@H]3C#N)c(=O)c2)c1` had a chromatographic logD in [1] of 2.4. For the same compound, the EC50 in data set [2] is greater than 30 µM. Besides, the half-inhibitory concentration (IC50) on Glutamate receptor 2 is greater than 30 µM. In addition, the microsomal CLint at 1 µM was found to be 15 µL/min/mg in [3] and 26 µL/min/mg in data set [4].

The compound `CCN(Cc1ccn(CC2CC2)c(=O)c1)c1ccc(F)cc1` yielded a chromatographic logD in data set [1] of 2.8. Further, at Glutamate receptor 2, the IC50 amounted to 0.75 µM.

Turning to `CCN(Cc1cc(C)n(CC2CC2)c(=O)c1)c1ccc(F)cc1`, in data set [1], the chromatographic logD was determined as 3.2. For the same compound, the IC50 on Glutamate receptor 2 is 9.9 µM.

Take `CCN(Cc1cc(C)n(CC2CCC2)c(=O)c1)c1ccc(F)cc1`: in [1], the chromatographic logD stood at 3.6. Besides, the EC50 in data set [2] worked out at 23 µM. Also, the IC50 on Glutamate receptor 2 turned out to be 1.2 µM.

The compound `CCN(Cc1cc(C)n(C[C@H]2C[C@@H]2C#N)c(=O)c1)c1ccc(F)cc1` registered a chromatographic logD in data set [1] of 2.4. Moreover, the IC50 at Glutamate receptor 2 turned out to be 11 µM. Further, the microsomal CLint at 1 µM in data set [3] is 48 µL/min/mg; in data set [4], greater than 768 µL/min/mg.

Compound `CCN(Cc1cc(C)n(Cc2ccccc2)c(=O)c1)c1ccc(F)cc1` returned a chromatographic logD in data set [1] of 3.5. The EC50 in data set [2] was greater than 30 µM. Besides, the IC50 at Glutamate receptor 2 stood at 5.5 µM.

The compound `Cc1cc(Cc2cccc(Cl)c2)cc(=O)n1C[C@H]1C[C@@H]1C#N` yielded a chromatographic logD in data set [1] of 2.3. Moreover, the IC50 on Glutamate receptor 2 was greater than 30 µM. Also, in [4], the microsomal CLint at 1 µM stood at 75 µL/min/mg.

With `Cc1cc(Cn2nc(Br)cc2Cl)cc(=O)n1C[C@H]1C[C@@H]1C#N`, in data set [1], the chromatographic logD is 1.6. Besides, the IC50 at Glutamate receptor 2 was greater than 30 µM. The microsomal CLint at 1 µM in [3] stood at 28 µL/min/mg; in data set [4], 14 µL/min/mg. For the same compound, the results for the EC50 in [5], in data set [6] and in data set [7] were greater than 30 µM, 1.9 µM and 5.1 µM, respectively. Besides, the concentration at 0.5 h in data set [8] was 926 ng/mL; in [9], 262 ng/g. Further, the concentration at 1 h in data set [10] came out at 590 ng/mL; in data set [11] it was 111 ng/g. Also, the concentration at 2 h was 362 ng/mL in data set [12] and 71 ng/g in data set [13].

The compound `CCN(Cc1cc(C)n(CCCC#N)c(=O)c1)c1ccc(F)cc1` returned a chromatographic logD in data set [1] of 2.4. The EC50 in [2] was greater than 30 µM. Besides, the IC50 at Glutamate receptor 2 amounted to 4.3 µM.

`CCc1cc(CN(CC)c2ccc(F)cc2)cc(=O)n1CC1CC1` registered a chromatographic logD in data set [1] of 3.6. In data set [2], the EC50 turned out to be 13 µM.

`Cc1cc(Cc2cccc(Br)c2)cc(=O)n1C[C@H]1C[C@@H]1C#N` displayed a chromatographic logD in data set [1] of 2.5. Moreover, the IC50 on Glutamate receptor 2 was greater than 30 µM. Moreover, the microsomal CLint at 1 µM in [3] amounted to 24 µL/min/mg; in [4] it was 72 µL/min/mg.

For `Cc1cc(Cn2nc(Cl)cc2Cl)cc(=O)n1C[C@H]1C[C@@H]1C#N`, the chromatographic logD in data set [1] worked out at 1.6. At Glutamate receptor 2, the IC50 was greater than 30 µM. The microsomal CLint at 1 µM was found to be 12 µL/min/mg in [3] and 22 µL/min/mg in [4].

Take `CCN(Cc1cc(C)n(CC2(C#N)CC2)c(=O)c1)c1ccc(F)cc1`: the chromatographic logD in data set [1] came to 2.5. Further, in data set [2], the concentration giving a half-maximal response (EC50) was greater than 30 µM. Moreover, on Glutamate receptor 2, the IC50 came to 2.3 µM.

Take `CCCc1cc(CN(CC)c2ccc(F)cc2)cc(=O)n1CC1CC1`: in data set [1], the chromatographic logD is 4. Moreover, the EC50 in [2] turned out to be 12 µM. On Glutamate receptor 2, the IC50 was greater than 30 µM.

`Cc1cc(Cn2nc(C(F)F)cc2Cl)cc(=O)n1C[C@H]1C[C@@H]1C#N` registered a chromatographic logD in [1] of 1.4. Further, the IC50 on Glutamate receptor 2 is greater than 30 µM.

`Cc1cc(Cn2nc(C(F)(F)F)cc2Cl)cc(=O)n1C[C@H]1C[C@@H]1C#N` showed a chromatographic logD in data set [1] of 1.8. Also, the IC50 at Glutamate receptor 2 was found to be 21 µM. The microsomal CLint at 1 µM in data set [3] was found to be 2 µL/min/mg; in data set [4] it was 22 µL/min/mg.

For `CCN(Cc1cc(C)n(C[C@@H]2C[C@H]2C#N)c(=O)c1)c1ccc(F)cc1` (racemic), at Glutamate receptor 2, the IC50 worked out at 10 µM.

The term chromatographic logD denotes a lipophilicity value derived from retention on a column. Read a high chromatographic logD as higher lipophilicity. One may read the IC50 as the point on the concentration scale where inhibition reaches its midpoint. Broadly, the EC50 is the concentration giving half of the maximal effect.
